Measured values reported in patent publication US4076659A, “L-Val^10 -somatostatin and intermediates thereto” (Eli Lilly and Company, priority 1976, dated 1978).
Bridge positions count the residues as written; N and C are the ends. Peptide text beside a SMILES is read from it.

System: release of growth hormone
Experiment: Inhibition of growth hormone release in sodium pentobarbitol-stimulated rats (modified Brazeau method)
Type: in vivo, mature male Spraque-Dawley rats
Conditions: subcutaneously, sodium pentobarbitol-stimulated GH secretion, vs saline control group
Method: The product from Example 4 was tested for its activity in inhibiting the release of growth hormone. The procedure which was employed is carried out using mature male Spraque-Dawley rats (Laboratory Supply Company, Indianapolis, Indiana). The test is a modification of the method of P. Brazeau, W. Vale, and R. Guilleman, Endocrinology, 94 184 (1974). In this assay, five groups of eight rats each were employed. First, sodium pentobarbitol was administered to all 40 rats to stimulate growth hormone secretion. One of the groups of eight rats is the control group and received only saline. Two of the groups received somatostatin, one at 2 μg./rat, subcutaneously, and the other at 50 μg./rat, subcutaneously. The other two groups received L-Val^10 -somatostatin, one at 2 μg./rat, subcutaneously and the other at 50 μg./rat, subcutaneously. The degree of inhibition of serum growth hormone concentration then was determined with respect to the control group, and the relative activities of L-Val^10 -somatostatin and somatostatin itself were compared.

Q: Which results are given for `CC(C)[C@@H]1NC(=O)[C@H](CCCCN)NC(=O)[C@H](Cc2c[nH]c3ccccc23)NC(=O)[C@H](Cc2ccccc2)NC(=O)[C@H](Cc2ccccc2)NC(=O)[C@H](CC(N)=O)NC(=O)[C@H](CCCCN)NC(=O)[C@@H](NC(=O)CNC(=O)[C@H](C)N)CSSC[C@@H](C(=O)O)NC(=O)[C@H](CO)NC(=O)[C@H]([C@@H](C)O)NC(=O)[C@H](Cc2ccccc2)NC1=O` [L-Val^10 -somatostatin] (H-AGCKNFFWKVFTSC-OH; disulfide 3-14)?
A: diminished serum growth hormone concentration over control (2 μg./rat): 49%; diminished serum growth hormone concentration over control (inhibition) (50 μg./rat): 72%
